“Also recorded” adds a separate entry of the source.
Key:
[1] = tested on: human cancer cell lines (HeLa, SiHa, A2780, MCF-7 and MDA-MB-231); assay: MTT antiproliferative assay, whole cancer cell panel; assay type: cell-based; settings: 10 and 30 μM
Method: The in vitro antiproliferative activities of the synthesised aminotriols 5–18 against a panel of different human cancer cell lines of gynecological origin, including cervical (SiHA and HeLa), breast (MCF7 and MDA-MB-231), ovary (A2780) cancers and NIH/3T3 healthy fibroblasts, were assayed by the MTT method. Cisplatin, a clinically applied anticancer agent was used as a reference compound, and the results are summarised in Figure 3 and Table S1 in the Supplementary Materials.
The growth-inhibitory effects of the presented terpenes were determined by a standard MTT [3-(4,5-dimethylthiazol2-yl)-2,5-diphenyltetrazolium bromide] assay against […] human cancer cell lines (cervical cancer HeLa and SiHa cell lines, breast cancer MCF-7 and MDA-MB-231 and ovarian cancer A2780). Murine embryonal fibroblast cells (NIH/3T3) were used to determine selectivity. All cell lines were purchased from the European Collection of Cell Cultures (Salisbury, UK). The cells were cultivated in Eagle’s minimal essential medium supplemented with 10% fetal bovine serum, 1% non-essential amino acids, and 1% Antibiotic-Antimycotic complex (penicillin, streptomycin, amphotericin B) at 37 °C in a humidified atmosphere containing 5% CO2. All media and supplements were purchased from Lonza Group Ltd. (Basel, Switzerland). Cancer cells were seeded into 96-well plates (5000 cells/well) after an overnight incubation, and the test compounds were added at two different concentrations (10 μM and 30 μM) and incubated for another 72 h under cell-culturing conditions. Finally, 20 μL of a 5 mg/mL MTT solution was added to each well, and the contents were incubated for a further 4 h. The medium was removed, and the precipitated formazan crystals were dissolved in DMSO by shaking at 37 °C for 60 min. The absorbance was measured at 545 nm by using a microplate reader (SPECTROStar Nano, BMG Labtech, Offenburg, Germany). Clinically utilised anticancer agent cisplatin (Ebewe GmbH, Unterach, Austria) was included as a reference molecule. Calculations were performed using the GraphPad Prism 9 software (GraphPad Software Inc., San Diego, CA, USA).

A2780 cells = assay: MTT antiproliferative assay, A2780; assay type: cell-based, human; settings: for inhibition at 10 µM / inhibition at 30 µM: Homo sapiens, 72 h, values <20% considered negligible, read-out: Growth inhibition (%) ± SEM, A2780; for inhibition at 10 µM: A2780, 10 μM; for inhibition at 30 µM: A2780, 30 μM
Summary of the method: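 Cells seeded at 5000 cells/well, treated next day with compounds at 10 μM and 30 μM for 72 h at 37 °C, 5% CO2 in EMEM with 10% FBS. MTT added for 4 h, formazan dissolved in DMSO, absorbance read at 545 nm; cisplatin as reference.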

COC(=O)[C@]1(C)CCC[C@@]2(C)C3CC[C@]4(O)C[C@@]3(CCC21)[C@@H](O)[C@]4(O)CNCc1ccccc1 (stereo partly drawn) [Compound 5, (4R,6aR,7R,8R,9S,11bS)-Methyl 8-((Benzylamino)methyl)-7,8,9-trihydroxy-4,11b-dimethyltetradecahydro-6a,9-methanocyclohepta[a]naphthalene-4-carboxylate]
Antiproliferative activity on the cancer cell panel, in words [1]: significant activity in higher concentrations only | inhibition at 10 µM (A2780 cells): 30.4 ± 2.48% | inhibition at 30 µM (A2780 cells): 97.15 ± 0.21%

COC(=O)[C@]1(C)CCC[C@@]2(C)C3CC[C@]4(O)C[C@@]3(CCC21)[C@@H](O)[C@]4(O)CN(C)Cc1ccccc1 (stereo partly drawn) [Compound 6, (4R,6aR,7R,8R,9S,11bS)-Methyl 8-((Benzyl(methyl)amino)methyl)-7,8,9-trihydroxy-4,11b-dimethyltetradecahydro-6a,9-methanocyclohepta[a]naphthalene-4-carboxylate]
Antiproliferative activity on the cancer cell panel, in words [1]: lower bioactivity; also recorded: significant activity in higher concentrations only | inhibition at 10 µM (A2780 cells): 25.7 ± 2.7% | inhibition at 30 µM (A2780 cells): 63.7 ± 1.98%

COC(=O)[C@]1(C)CCC[C@@]2(C)C3CC[C@]4(O)C[C@@]3(CCC21)[C@@H](O)[C@]4(O)CNCc1ccc(F)cc1 (stereo partly drawn) [Compound 9, (4R,6aR,7R,8R,9S,11bS)-Methyl 8-(((4-Fluorobenzyl)amino)methyl)-7,8,9-trihydroxy-4,11b-dimethyltetradecahydro-6a,9-methanocyclohepta[a]naphthalene-4-carboxylate]
inhibition at 10 µM (A2780 cells): 45.6 ± 3.13% | inhibition at 30 µM (A2780 cells): 96.97 ± 0.29%

CC[C@@H](NC[C@@]1(O)[C@H](O)[C@@]23CCC4[C@@](C)(CCC[C@@]4(C)C(=O)OC)C2CC[C@]1(O)C3)c1ccccc1 (stereo partly drawn) [Compound 15, (4R,6aR,7R,8R,9S,11bS)-Methyl 7,8,9-Trihydroxy-4,11b-dimethyl-8-((((R)-1-phenylpropyl)amino)methyl)tetradecahydro-6a,9-methanocyclohepta[a]naphthalene-4-carboxylate]
Antiproliferative effect on A2780, in words (A2780 cells; 10 and 30 μM): modest inhibition | inhibition at 10 µM (A2780 cells): 50 ± 2.99% | inhibition at 30 µM (A2780 cells): 96.64 ± 0.24%

CC[C@H](NC[C@@]1(O)[C@H](O)[C@@]23CCC4[C@@](C)(CCC[C@@]4(C)C(=O)OC)C2CC[C@]1(O)C3)c1ccccc1 (stereo partly drawn) [Compound 16, (4R,6aR,7R,8R,9S,11bS)-Methyl 7,8,9-Trihydroxy-4,11b-dimethyl-8-((((S)-1-phenylpropyl)amino)methyl)tetradecahydro-6a,9-methanocyclohepta[a]naphthalene-4-carboxylate]
inhibition at 10 µM (A2780 cells): 48.3 ± 2.17% | inhibition at 30 µM (A2780 cells): 96.99 ± 0.19%

Reference: paper PMC9861858, “Stereoselective Synthesis and Antiproliferative Activities of Tetrafunctional Diterpene Steviol Derivatives” (International Journal of Molecular Sciences, 2023)
